Source: PubChem BioAssay (NCI)
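How tested: cells in 96-well plates exposed to compound for 48 hours at five concentrations. At the GI50, growth is halved. Definition used: TGI = concentration required for complete inhibition of growth.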

Assays:
Assay in all cases: NCI anticancer screen, dose series, 48 h
SNB-19 CNS = tested on: SNB-19 CNS
OVCAR-3 ovarian = tested on: OVCAR-3 ovarian
M14 melanoma = tested on: M14 melanoma
RXF 393 renal = tested on: RXF 393 renal
A498 renal = tested on: A498 renal
MALME-3M melanoma = tested on: MALME-3M melanoma
SK-MEL-2 melanoma = tested on: SK-MEL-2 melanoma
UACC-257 melanoma = tested on: UACC-257 melanoma
LOX IMVI melanoma = tested on: LOX IMVI melanoma
SF-268 CNS = tested on: SF-268 CNS

## COc1ccc2c(c1)C(=O)/C(=C/c1ccccc1)C2
SNB-19 CNS
  TGI: > 100 µM
OVCAR-3 ovarian
  TGI: > 100 µM
M14 melanoma
  TGI: > 100 µM
RXF 393 renal
  TGI: > 100 µM
A498 renal
  TGI: > 100 µM
MALME-3M melanoma
  TGI: > 100 µM
SK-MEL-2 melanoma
  TGI: > 100 µM

## COc1cc(CN(C)N2C(=O)c3cccc4cc([N+](=O)[O-])cc(c34)C2=O)cc(OC)c1OC
SNB-19 CNS
  TGI: > 100 µM
OVCAR-3 ovarian
  TGI: > 100 µM
M14 melanoma
  TGI: > 100 µM
RXF 393 renal
  TGI: 90.3 µM
A498 renal
  TGI: > 100 µM
MALME-3M melanoma
  TGI: > 100 µM
SK-MEL-2 melanoma
  TGI: > 100 µM

## O=C(NC/C=C/CO)c1ccccc1
SNB-19 CNS
  TGI: > 100 µM
UACC-257 melanoma
  TGI: > 100 µM
OVCAR-3 ovarian
  TGI: > 100 µM
RXF 393 renal
  TGI: > 100 µM
LOX IMVI melanoma
  TGI: > 100 µM
A498 renal
  TGI: > 100 µM
SF-268 CNS
  TGI: > 100 µM
MALME-3M melanoma
  TGI: > 100 µM
SK-MEL-2 melanoma
  TGI: > 100 µM

## CCCCN(CCCC)C1(c2cc3ccccc3s2)CCCCC1
SNB-19 CNS
  TGI: 33.8 µM
UACC-257 melanoma
  TGI: 34 µM
OVCAR-3 ovarian
  TGI: 29.9 µM
M14 melanoma
  TGI: 30.6 µM
RXF 393 renal
  TGI: 30.8 µM
LOX IMVI melanoma
  TGI: 28.3 µM
A498 renal
  TGI: 34.1 µM
SF-268 CNS
  TGI: 34 µM
SK-MEL-2 melanoma
  TGI: 34.5 µM

## C=C1CC2(C)CCC(OC(=O)C3(C)OC3C)C(C)(OC(C)=O)C2CC1=C(C)C (configuration not stated)
SNB-19 CNS
  TGI: > 100 µM
UACC-257 melanoma
  TGI: > 100 µM
OVCAR-3 ovarian
  TGI: > 100 µM
M14 melanoma
  TGI: > 100 µM
RXF 393 renal
  TGI: > 100 µM
LOX IMVI melanoma
  TGI: > 100 µM
A498 renal
  TGI: > 100 µM
SF-268 CNS
  TGI: > 100 µM
MALME-3M melanoma
  TGI: > 100 µM
SK-MEL-2 melanoma
  TGI: > 100 µM

## CCC1CN2CCc3cc(OC)c(OC)cc3C2CC1CC1c2cc(OC)c(OC)cc2CCN1C(=O)C(Cc1c[nH]c2ccccc12)NC(=O)OC(C)(C)C (configuration not stated)
SNB-19 CNS
  TGI: 17.6 µM
UACC-257 melanoma
  TGI: 8.53 µM
OVCAR-3 ovarian
  TGI: 6.74 µM
M14 melanoma
  TGI: 3.29 µM
RXF 393 renal
  TGI: 7.3 µM
LOX IMVI melanoma
  TGI: 3.58 µM
A498 renal
  TGI: 17.8 µM
SF-268 CNS
  TGI: 15.9 µM
MALME-3M melanoma
  TGI: 3.22 µM
SK-MEL-2 melanoma
  TGI: 7.13 µM

## O=C(O)CSc1nc2ccccc2[nH]1
SNB-19 CNS
  TGI: > 100 µM
UACC-257 melanoma
  TGI: > 100 µM
OVCAR-3 ovarian
  TGI: > 100 µM
M14 melanoma
  TGI: > 100 µM
RXF 393 renal
  TGI: > 100 µM
LOX IMVI melanoma
  TGI: > 100 µM
A498 renal
  TGI: > 100 µM
SF-268 CNS
  TGI: > 100 µM
MALME-3M melanoma
  TGI: > 100 µM
SK-MEL-2 melanoma
  TGI: > 100 µM

## CC12CCC3C(CCC4(O)C=CCCC34C=O)C1(O)CC(O)C2c1ccc(=O)oc1 (configuration not stated)
SNB-19 CNS
  TGI: 0.527 µM
UACC-257 melanoma
  TGI: 0.478 µM
OVCAR-3 ovarian
  TGI: 0.0939 µM
RXF 393 renal
  TGI: 0.0693 µM
LOX IMVI melanoma
  TGI: 0.216 µM
A498 renal
  TGI: 0.253 µM
SF-268 CNS
  TGI: 0.0754 µM
MALME-3M melanoma
  TGI: 0.0877 µM
SK-MEL-2 melanoma
  TGI: 0.295 µM

## O=C1CNC(=O)N1
SNB-19 CNS
  TGI: > 1120 µM
UACC-257 melanoma
  TGI: > 1120 µM
OVCAR-3 ovarian
  TGI: > 1120 µM
RXF 393 renal
  TGI: > 1120 µM
LOX IMVI melanoma
  TGI: > 1120 µM
A498 renal
  TGI: > 1120 µM
SF-268 CNS
  TGI: > 1120 µM
MALME-3M melanoma
  TGI: > 1120 µM
SK-MEL-2 melanoma
  TGI: > 1120 µM

## Cc1ccc(NCCO)cc1
SNB-19 CNS
  TGI: > 100 µM
UACC-257 melanoma
  TGI: > 100 µM
OVCAR-3 ovarian
  TGI: > 100 µM
M14 melanoma
  TGI: > 100 µM
LOX IMVI melanoma
  TGI: > 100 µM
SF-268 CNS
  TGI: > 100 µM
MALME-3M melanoma
  TGI: > 100 µM
SK-MEL-2 melanoma
  TGI: > 100 µM

## CCOC(=O)C(CC(C)C)NC(=O)C(N)Cc1ccc(N(CCCl)CCCl)cc1 (configuration not stated)
SNB-19 CNS
  TGI: 35.5 µM
UACC-257 melanoma
  TGI: 26.9 µM
OVCAR-3 ovarian
  TGI: 4.72 µM
M14 melanoma
  TGI: 11.7 µM
RXF 393 renal
  TGI: 5.12 µM
LOX IMVI melanoma
  TGI: 0.278 µM
A498 renal
  TGI: 30.9 µM
SF-268 CNS
  TGI: 16.8 µM
MALME-3M melanoma
  TGI: 3.84 µM
SK-MEL-2 melanoma
  TGI: 11.8 µM

## CCNc1nc2c(=O)n(C)c(=O)n(C)c2s1
SNB-19 CNS
  TGI: > 100 µM
UACC-257 melanoma
  TGI: > 100 µM
OVCAR-3 ovarian
  TGI: > 100 µM
M14 melanoma
  TGI: > 100 µM
RXF 393 renal
  TGI: > 100 µM
LOX IMVI melanoma
  TGI: > 100 µM
A498 renal
  TGI: > 100 µM
SF-268 CNS
  TGI: > 100 µM
MALME-3M melanoma
  TGI: > 100 µM
SK-MEL-2 melanoma
  TGI: > 100 µM

## CCOC(=O)c1csc(NC(=O)CCN2CCOCC2)n1
SNB-19 CNS
  TGI: > 100 µM
UACC-257 melanoma
  TGI: > 100 µM
OVCAR-3 ovarian
  TGI: > 100 µM
M14 melanoma
  TGI: > 100 µM
RXF 393 renal
  TGI: > 100 µM
LOX IMVI melanoma
  TGI: > 100 µM
A498 renal
  TGI: > 100 µM
MALME-3M melanoma
  TGI: > 100 µM
SK-MEL-2 melanoma
  TGI: > 100 µM

## Nc1ccc(N=Nc2ccc(-c3ccc(N=Nc4c(S(=O)(=O)O)cc5cc(S(=O)(=O)O)c(N=Nc6ccc([N+](=O)[O-])cc6)c(N)c5c4O)cc3)cc2)c2cc(S(=O)(=O)O)ccc12
SNB-19 CNS
  TGI: > 100 µM
UACC-257 melanoma
  TGI: > 100 µM
OVCAR-3 ovarian
  TGI: > 100 µM
M14 melanoma
  TGI: > 100 µM
RXF 393 renal
  TGI: > 100 µM
LOX IMVI melanoma
  TGI: > 100 µM
A498 renal
  TGI: > 100 µM
SF-268 CNS
  TGI: > 100 µM
MALME-3M melanoma
  TGI: > 100 µM
SK-MEL-2 melanoma
  TGI: > 100 µM

## NCCSC1(O)C(=O)c2ccccc2-c2ccccc21 (configuration not stated)
SNB-19 CNS
  TGI: 2.86 µM
UACC-257 melanoma
  TGI: 2.09 µM
OVCAR-3 ovarian
  TGI: 0.38 µM
M14 melanoma
  TGI: 4.25 µM
RXF 393 renal
  TGI: 3.01 µM
LOX IMVI melanoma
  TGI: 0.717 µM
A498 renal
  GI50: 1710 nM
  TGI: 3.11 µM
SF-268 CNS
  TGI: 2.91 µM
MALME-3M melanoma
  TGI: 2.84 µM
SK-MEL-2 melanoma
  TGI: 3.47 µM

## COc1ccc(-c2nnc3c4ccccc4sn23)cc1
SNB-19 CNS
  TGI: > 100 µM
UACC-257 melanoma
  TGI: 73.8 µM
OVCAR-3 ovarian
  TGI: 61.5 µM
M14 melanoma
  TGI: > 100 µM
RXF 393 renal
  TGI: 82.5 µM
LOX IMVI melanoma
  TGI: > 100 µM
SF-268 CNS
  TGI: > 100 µM
SK-MEL-2 melanoma
  TGI: > 100 µM

## Fc1cc(C2=Nn3c(nnc3-c3cc(F)c(Cl)cc3Cl)SC2)c(Cl)cc1Cl
SNB-19 CNS
  GI50: 22.7 µM
  TGI: 93.4 µM
UACC-257 melanoma
  GI50: 30.2 µM
  TGI: > 100 µM
OVCAR-3 ovarian
  GI50: 11.5 µM
  TGI: 46.9 µM
RXF 393 renal
  GI50: 23.2 µM
  TGI: 62.5 µM
LOX IMVI melanoma
  GI50: 21.6 µM
  TGI: 45.6 µM
SF-268 CNS
  GI50: 18.5 µM
  TGI: 61.3 µM
MALME-3M melanoma
  GI50: 28.4 µM
  TGI: 66.7 µM
SK-MEL-2 melanoma
  GI50: 65.3 µM
  TGI: > 100 µM
